{
  "source": "patent US20060069132A1",
  "about": "“Azolecarboxamide herbicides” (priority 2004, published 2006)",
  "key": {"large crabgrass": {"system": "large crabgrass", "test": "Test C pre-/postemergence herbicide test", "type": "in vivo, Digitaria sanguinalis", "procedure,_shortened": "(§1)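 Preemergence: seeds planted and treated with compound in non-phytotoxic solvent with surfactant; postemergence: plants at 2 to 18 cm (1- to 4-leaf stage) sprayed likewise. Kept in greenhouse 12 to 14 days, then visually rated against controls, 0 (no effect) to 100 (complete control).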"}, "giant foxtail [1]": {"system": "giant foxtail", "test": "Test A pre-/postemergence herbicide test", "type": "in vivo, Setaria faberi", "procedure,_shortened": "(§2)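 Sandy loam soil given preemergence directed spray; plants at 2 to 10 cm, one- to two-leaf stage, sprayed to runoff postemergence, compounds in non-phytotoxic solvent with surfactant. Injury rated visually versus untreated controls after about ten greenhouse days, 0 (no effect) to 100 (complete control); dash means not tested.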"}, "giant foxtail [2]": {"system": "giant foxtail", "test": "Test C pre-/postemergence herbicide test", "type": "in vivo, Setaria faberi", "procedure,_shortened": "as §1"}, "redroot pigweed": {"system": "redroot pigweed", "test": "Test A pre-/postemergence herbicide test", "type": "in vivo, Amaranthus retroflexus", "procedure,_shortened": "as §2"}, "goosegrass": {"system": "goosegrass", "test": "Test C pre-/postemergence herbicide test", "type": "in vivo, Eleusine indica", "procedure,_shortened": "as §1"}, "woolly cupgrass": {"system": "woolly cupgrass", "test": "Test C pre-/postemergence herbicide test", "type": "in vivo, Eriochloa villosa", "procedure,_shortened": "as §1"}, "bermudagrass": {"system": "bermudagrass", "test": "Test C pre-/postemergence herbicide test", "type": "in vivo, Cynodon dactylon", "procedure,_shortened": "as §1"}, "pigweed": {"system": "pigweed", "test": "Test C pre-/postemergence herbicide test", "type": "in vivo, Amaranthus retroflexus", "procedure,_shortened": "as §1"}, "[3]": {"settings": "31 g ai/ha, preemergence, scale 0 to 100"}, "[4]": {"settings": "125 g ai/ha, scale 0 (no effect) to 100 (complete control), visual, 12 to 14 days, preemergence"}, "[5]": {"settings": "250 g ai/ha, scale 0 to 100 (0 no effect, 100 complete control), visual, 12 to 14 days, preemergence"}, "[6]": {"settings": "Postemergence, 250 g ai/ha, scale 0 to 100, 0 no effect, 100 complete control"}, "[7]": {"settings": "postemergence, 125 g ai/ha, scale 0 to 100"}, "[8]": {"settings": "postemergence, 62 g ai/ha, scale 0 to 100"}, "[9]": {"settings": "Postemergence, 500 g ai/ha, 0 to 100 scale, 0 no effect, 100 complete control"}, "[10]": {"settings": "Postemergence, 2000 g ai/ha, 0 to 100 scale, 0 no effect, 100 complete control"}, "[11]": {"settings": "Preemergence, 500 g ai/ha, visual rating, 0 to 100 scale (0 no effect, 100 complete control)"}, "[12]": {"settings": "Preemergence, 2000 g ai/ha, visual rating, 0 to 100 scale (0 no effect, 100 complete control)"}},
  "data": [
    {"molecule": "C=Cn1nc(C(C)(C)C)cc1C(=O)Nc1cccc(C(C)=NO)c1", "note": "[Compound 114]", "values": [
      {"measurement": "Plant response rating, Crabgrass, Large", "setting": "large crabgrass; [3]", "result": 100},
      {"measurement": "Plant response rating (0 = no effect, 100 = complete control), Crabgrass, Large", "setting": "large crabgrass; 62 g ai/ha, preemergence", "result": 100},
      {"measurement": "Plant response rating, Crabgrass, Large", "setting": "large crabgrass; [4]", "result": 100},
      {"measurement": "Plant response rating, Crabgrass, Large", "setting": "large crabgrass; [5]", "result": 100},
      {"measurement": "Plant response rating, Crabgrass, Large", "setting": "large crabgrass; [6]", "result": 100},
      {"measurement": "Plant response rating, Crabgrass, Large", "setting": "large crabgrass; [7]", "result": 100},
      {"measurement": "Plant response rating, Crabgrass, Large", "setting": "large crabgrass; [8]", "result": 20},
      {"measurement": "Foxtail, Giant plant response rating", "setting": "giant foxtail [1]; [9]", "result": 50},
      {"measurement": "Plant response rating, Foxtail, Giant", "setting": "giant foxtail [1]; [10]", "result": 55},
      {"measurement": "Foxtail, Giant plant response rating", "setting": "giant foxtail [1]; [11]", "result": 30},
      {"measurement": "Foxtail, Giant plant response rating", "setting": "giant foxtail [1]; [12]", "result": 45},
      {"measurement": "Plant response rating, Foxtail, Giant", "setting": "giant foxtail [2]; [3]", "result": 20},
      {"measurement": "Plant response rating (0 = no effect, 100 = complete control), Foxtail, Giant", "setting": "giant foxtail [2]; 62 g ai/ha, preemergence", "result": 20},
      {"measurement": "Plant response rating, Foxtail, Giant", "setting": "giant foxtail [2]; [4]", "result": 30},
      {"measurement": "Plant response rating, Foxtail, Giant", "setting": "giant foxtail [2]; [5]", "result": 40},
      {"measurement": "Plant response rating, Foxtail, Giant", "setting": "giant foxtail [2]; [6]", "result": 10},
      {"measurement": "Plant response rating, Foxtail, Giant", "setting": "giant foxtail [2]; [8]", "result": 10},
      {"measurement": "Pigweed plant response rating", "setting": "redroot pigweed; [9]", "result": 85},
      {"measurement": "Plant response rating, Pigweed", "setting": "redroot pigweed; [10]", "result": 100},
      {"measurement": "Pigweed plant response rating", "setting": "redroot pigweed; [11]", "result": 85},
      {"measurement": "Pigweed plant response rating", "setting": "redroot pigweed; [12]", "result": 90},
      {"measurement": "Plant response rating, Goosegrass", "setting": "goosegrass; [3]", "result": 20},
      {"measurement": "Plant response rating (0 = no effect, 100 = complete control), Goosegrass", "setting": "goosegrass; 62 g ai/ha, preemergence", "result": 40},
      {"measurement": "Plant response rating, Goosegrass", "setting": "goosegrass; [4]", "result": 80},
      {"measurement": "Plant response rating, Goosegrass", "setting": "goosegrass; [6]", "result": 70},
      {"measurement": "Plant response rating, Goosegrass", "setting": "goosegrass; [7]", "result": 60},
      {"measurement": "Plant response rating, Goosegrass", "setting": "goosegrass; [8]", "result": 60},
      {"measurement": "Plant response rating, Cupgrass, Woolly", "setting": "woolly cupgrass; [3]", "result": 0},
      {"measurement": "Plant response rating, Cupgrass, Woolly", "setting": "woolly cupgrass; [4]", "result": 10},
      {"measurement": "Plant response rating, Cupgrass, Woolly", "setting": "woolly cupgrass; [5]", "result": 30},
      {"measurement": "Plant response rating, Cupgrass, Woolly", "setting": "woolly cupgrass; [6]", "result": 70},
      {"measurement": "Plant response rating, Cupgrass, Woolly", "setting": "woolly cupgrass; [7]", "result": 70},
      {"measurement": "Plant response rating, Cupgrass, Woolly", "setting": "woolly cupgrass; [8]", "result": 70},
      {"measurement": "Plant response rating, Bermudagrass", "setting": "bermudagrass; [3]", "result": 10},
      {"measurement": "Plant response rating (0 = no effect, 100 = complete control), Bermudagrass", "setting": "bermudagrass; 62 g ai/ha, preemergence", "result": 50},
      {"measurement": "Plant response rating, Bermudagrass", "setting": "bermudagrass; [4]", "result": 90},
      {"measurement": "Plant response rating, Bermudagrass", "setting": "bermudagrass; [5]", "result": 100},
      {"measurement": "Plant response rating, Bermudagrass", "setting": "bermudagrass; [6]", "result": 90},
      {"measurement": "Plant response rating, Bermudagrass", "setting": "bermudagrass; [7]", "result": 90},
      {"measurement": "Plant response rating, Bermudagrass", "setting": "bermudagrass; postemergence, 31 g ai/ha, scale 0 to 100", "result": 20},
      {"measurement": "Plant response rating, Bermudagrass", "setting": "bermudagrass; [8]", "result": 60},
      {"measurement": "Plant response rating, Pigweed", "setting": "pigweed; [3]", "result": 0},
      {"measurement": "Plant response rating (0 = no effect, 100 = complete control), Pigweed", "setting": "pigweed; 62 g ai/ha, preemergence", "result": 100},
      {"measurement": "Plant response rating, Pigweed", "setting": "pigweed; [4]", "result": 100},
      {"measurement": "Plant response rating, Pigweed", "setting": "pigweed; [6]", "result": 100},
      {"measurement": "Plant response rating, Pigweed", "setting": "pigweed; [7]", "result": 100},
      {"measurement": "Plant response rating, Pigweed", "setting": "pigweed; [8]", "result": 100}
    ]}
  ]
}
